Here are results for 4 compounds from patent US20100190151A1 (priority 2003, published 2010).

The assay relates to DNA polymerase. The settings on record: surface-anchored primer/template DNA, stepwise reactions, FIG. 2(b); Cy5-dCTP detected by spFRET with Cy3-dUTP. On the procedure: FIG. 2a(1) is an image of the slide surface: Annealed primer/template DNA molecules detected by Cy3 fluorescence from the labeled primer. Scale bar, 10 µm. […] FIG. 2a(3) is an image of the slide surface: Labeled nucleotide fluorescence after successful incorporation by DNA polymerase. Note; prior to the incorporation reaction, the primer fluorescence shown in FIG. 2a(1) was photo-bleached. After incubation of template DNA molecules with DNA polymerase and a labeled dNTP, the sequencing chamber was flushed to prevent fluorescent detection of unincorporated labeled dNTPs. […] FIG. 2a(5) is an overlay of the primer/template positions with the labeled nucleotide positions.
Observations of single-molecule fluorescence can be made using a conventional microscope equipped with total internal reflection (TIR) illumination. […] First, the surface of a quartz slide is chemically treated to specifically anchor template nucleic acid molecules while preventing non-specific binding of labeled dNTPs present in the sequencing reaction. A plastic flow cell is then attached to the surface of the slide to facilitate the exchange of buffers and reagents. Next, biotinylated oligonucleotides, serving as sequencing templates, are annealed to a fluorescently labeled primer. Template nucleic acid molecules are bound to the slide surface via streptavidin and biotin at a surface density low enough to resolve single nucleic acid molecules. The primed templates are detected via their fluorescent tags and their locations are recorded for future reference. After noting the location of each template nucleic acid molecule, their fluorescent tags are photo-bleached. Labeled dNTPs and polymerase (or polymerizing agent) are then washed in and out of the flow cell, one dNTP at a time, while the known locations of the template nucleic acid molecules are monitored for fluorescence, an indication that the primer annealed to the template nucleic acid molecule had been extended by one labeled nucleotide.

`CCN1/C(=C/C=C/C2=[N+](CCCCCC(=O)NCC#Cc3cn(C4CC(O)C(COP(=O)([O-])OP(=O)([O-])OP(=O)([O-])[O-])O4)c(=O)nc3N)c3cc(S(=O)(=O)O)ccc3C2(C)C)C(C)(C)c2ccc(S(=O)(=O)[O-])cc21.[Li+].[Li+].[Li+].[Li+]` (stereo not shown) [Cy3-dCTP]: the “incorporation of labeled dNTP by DNA polymerase (selectivity and fidelity)” value is listed as “correctly refusing to incorporate”.
For the compound Cy5-dUTP, the “incorporation of labeled dNTP by DNA polymerase (selectivity and fidelity)” value is listed as “correctly refusing to incorporate”.
The same measure for Cy5-dCTP: “correctly incorporated”; for Cy3-dUTP: “correctly incorporated”.
